Experimental data as given in US9695155B2, “Herbicidal substituted pyrimidinyloxy benzene compounds” (E. I. DU PONT DE NEMOURS AND COMPANY, priority 2013, dated 2017).

What was measured:
[1] = system: lambsquarters; experiment: Test D postemergence; format: in vivo, Chenopodium album; conditions: Chenopodium album, post-emergence; for pest or weed control at 16 g/ha: 16 g ai/ha, scale 0-100, read-out: Plant response rating, Lambsquarters; for pest or weed control at 31 g/ha: 31 g ai/ha; for pest or weed control at 31 g/ha / pest or weed control at 62 g/ha / pest or weed control at 125 g/ha: scale 0 to 100 (0 no effect, 100 complete control), read-out: Plant response rating, Lambsquarters; for pest or weed control at 62 g/ha: 62 g ai/ha; for pest or weed control at 125 g/ha: 125 g ai/ha
Outline: (§1)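 Greenhouse herbicide screen. Sowing into silt loam for preemergence application; foliar application to 2–18 cm seedlings in potting mix for postemergence. 0–100 visual control rating after 7–21 d.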

[2] = system: green foxtail; experiment: Test D preemergence; format: in vivo, Setaria viridis; conditions: Setaria viridis, pre-emergence; for pest or weed control at 16 g/ha: 16 g ai/ha, scale 0 (no effect) to 100 (complete control), read-out: Plant response rating, Foxtail, Green; for pest or weed control at 31 g/ha: 31 g ai/ha; for pest or weed control at 31 g/ha / pest or weed control at 62 g/ha / pest or weed control at 125 g/ha: scale 0-100, read-out: Plant response rating, Foxtail, Green; for pest or weed control at 62 g/ha: 62 g ai/ha; for pest or weed control at 125 g/ha: 125 g ai/ha
Outline: as §1

[3] = system: canarygrass; experiment: Test D postemergence; format: in vivo, Phalaris minor; conditions: Phalaris minor, post-emergence; for pest or weed control at 16 g/ha: 16 g ai/ha, scale 0-100, read-out: Plant response rating, Canarygrass; for pest or weed control at 31 g/ha: 31 g ai/ha; for pest or weed control at 31 g/ha / pest or weed control at 62 g/ha / pest or weed control at 125 g/ha: scale 0 to 100 (0 no effect, 100 complete control), read-out: Plant response rating, Canarygrass; for pest or weed control at 62 g/ha: 62 g ai/ha; for pest or weed control at 125 g/ha: 125 g ai/ha
Outline: as §1

[4] = system: winter barley; experiment: Test D postemergence; format: in vivo, Hordeum vulgare; conditions: Hordeum vulgare, post-emergence, Postemergence, scale 0 to 100 (0 no effect, 100 complete control), read-out: Plant response rating, Barley, Winter; for plant injury at 16 g/ha: 16 g ai/ha; for plant injury at 31 g/ha: 31 g ai/ha; for plant injury at 62 g/ha: 62 g ai/ha; for plant injury at 125 g/ha: 125 g ai/ha
Outline: as §1

[5] = system: spring barley; experiment: Test D postemergence; format: in vivo, Hordeum vulgare; conditions: Hordeum vulgare, post-emergence, Postemergence, scale 0 to 100 (0 no effect, 100 complete control), read-out: Plant response rating, Barley, Spring; for plant injury at 16 g/ha: 16 g ai/ha; for plant injury at 31 g/ha: 31 g ai/ha; for plant injury at 62 g/ha: 62 g ai/ha; for plant injury at 125 g/ha: 125 g ai/ha
Outline: as §1

[6] = system: wild buckwheat; experiment: Test D postemergence; format: in vivo, Polygonum convolvulus; conditions: Fallopia convolvulus, post-emergence, Postemergence, scale 0 to 100 (0 no effect, 100 complete control), read-out: Plant response rating, Buckwheat, Wild; for pest or weed control at 16 g/ha: 16 g ai/ha; for pest or weed control at 31 g/ha: 31 g ai/ha; for pest or weed control at 62 g/ha: 62 g ai/ha; for pest or weed control at 125 g/ha: 125 g ai/ha
Outline: as §1

[7] = system: chamomile; experiment: Test D postemergence; format: in vivo, Matricaria inodora; conditions: Tripleurospermum inodorum, post-emergence; for pest or weed control at 16 g/ha: 16 g ai/ha, scale 0-100, read-out: Plant response rating, Chamomile; for pest or weed control at 31 g/ha: 31 g ai/ha; for pest or weed control at 31 g/ha / pest or weed control at 62 g/ha / pest or weed control at 125 g/ha: scale 0 to 100 (0 no effect, 100 complete control), read-out: Plant response rating, Chamomile; for pest or weed control at 62 g/ha: 62 g ai/ha; for pest or weed control at 125 g/ha: 125 g ai/ha
Outline: as §1

[8] = system: kochia; experiment: Test D postemergence; format: in vivo, Kochia scoparia; conditions: Bassia scoparia, post-emergence; for pest or weed control at 16 g/ha: 16 g ai/ha, scale 0-100, read-out: Plant response rating, Kochia; for pest or weed control at 31 g/ha: 31 g ai/ha; for pest or weed control at 31 g/ha / pest or weed control at 62 g/ha / pest or weed control at 125 g/ha: scale 0 to 100 (0 no effect, 100 complete control), read-out: Plant response rating, Kochia; for pest or weed control at 62 g/ha: 62 g ai/ha; for pest or weed control at 125 g/ha: 125 g ai/ha
Outline: as §1

[9] = system: oilseed rape; experiment: Test D preemergence; format: in vivo, Brassica napus; conditions: Brassica napus, pre-emergence; for plant injury at 16 g/ha: 16 g ai/ha, scale 0 (no effect) to 100 (complete control), read-out: Plant response rating, Oilseed Rape; for plant injury at 31 g/ha: 31 g ai/ha; for plant injury at 31 g/ha / plant injury at 62 g/ha / plant injury at 125 g/ha: scale 0-100, read-out: Plant response rating, Oilseed Rape; for plant injury at 62 g/ha: 62 g ai/ha; for plant injury at 125 g/ha: 125 g ai/ha
Outline: as §1

[10] = system: green foxtail; experiment: Test D postemergence; format: in vivo, Setaria viridis; conditions: Setaria viridis, post-emergence; for pest or weed control at 16 g/ha: 16 g ai/ha, scale 0-100, read-out: Plant response rating, Foxtail, Green; for pest or weed control at 31 g/ha: 31 g ai/ha; for pest or weed control at 31 g/ha / pest or weed control at 62 g/ha / pest or weed control at 125 g/ha: scale 0 to 100 (0 no effect, 100 complete control), read-out: Plant response rating, Foxtail, Green; for pest or weed control at 62 g/ha: 62 g ai/ha; for pest or weed control at 125 g/ha: 125 g ai/ha
Outline: as §1

Question: What does the source list for FC(F)(F)COc1cnn(-c2ccccc2Oc2ncc(Cl)cn2)c1 [Compound 138, 5-chloro-2-[2-[4-(2,2,2-trifluoroethoxy)-1H-pyrazol-1-yl]phenoxy]pyrimidine]?
Answer: pest or weed control at 16 g/ha [1]: 55%; pest or weed control at 31 g/ha [1]: 60%; pest or weed control at 62 g/ha [1]: 60%; pest or weed control at 125 g/ha [1]: 60%; pest or weed control at 16 g/ha [2]: 0%; pest or weed control at 31 g/ha [2]: 0%; pest or weed control at 62 g/ha [2]: 20%; pest or weed control at 125 g/ha [2]: 100%; pest or weed control at 16 g/ha [3]: 5%; pest or weed control at 31 g/ha [3]: 10%; pest or weed control at 62 g/ha [3]: 10%; pest or weed control at 125 g/ha [3]: 15%; plant injury at 16 g/ha [4]: 5%; plant injury at 31 g/ha [4]: 5%; plant injury at 62 g/ha [4]: 5%; plant injury at 125 g/ha [4]: 10%; plant injury at 16 g/ha [5]: 10%; plant injury at 31 g/ha [5]: 10%; plant injury at 62 g/ha [5]: 10%; plant injury at 125 g/ha [5]: 15%; pest or weed control at 16 g/ha [6]: 65%; pest or weed control at 31 g/ha [6]: 70%; pest or weed control at 62 g/ha [6]: 65%; pest or weed control at 125 g/ha [6]: 80%; pest or weed control at 16 g/ha [7]: 0%; pest or weed control at 31 g/ha [7]: 0%; pest or weed control at 62 g/ha [7]: 0%; pest or weed control at 125 g/ha [7]: 0%; pest or weed control at 16 g/ha [8]: 25%; pest or weed control at 31 g/ha [8]: 40%; pest or weed control at 62 g/ha [8]: 55%; pest or weed control at 125 g/ha [8]: 75%; plant injury at 16 g/ha [9]: 35%; plant injury at 31 g/ha [9]: 30%; plant injury at 62 g/ha [9]: 50%; plant injury at 125 g/ha [9]: 65%; pest or weed control at 16 g/ha [10]: 20%; pest or weed control at 31 g/ha [10]: 20%; pest or weed control at 62 g/ha [10]: 20%; pest or weed control at 125 g/ha [10]: 30%

Question: With FC(F)(F)c1cn(-c2ccccc2Oc2ncc(Cl)cn2)nn1 [Compound 166, 5-chloro-2-[2-[4-(trifluoromethyl)-1H-1,2,3-triazol-1-yl]phenoxy]pyrimidine] as the compound, how does the pest or weed control at 16 g/ha [1] read?
Answer: 80%

Question: What about the pest or weed control at 31 g/ha [1] of the same compound?
Answer: 90%

Question: And the pest or weed control at 62 g/ha [1]?
Answer: 95%

Question: And the pest or weed control at 125 g/ha [1]?
Answer: 95%

Question: What about the pest or weed control at 16 g/ha [2] of the same compound?
Answer: 25%

Question: What about the pest or weed control at 31 g/ha [2] of the same compound?
Answer: 65%

Question: And the pest or weed control at 62 g/ha [2]?
Answer: 100%

Question: And the pest or weed control at 125 g/ha [2]?
Answer: 100%

Question: What about the pest or weed control at 16 g/ha [3] of the same compound?
Answer: 20%

Question: What about the pest or weed control at 31 g/ha [3] of the same compound?
Answer: 35%

Question: And the pest or weed control at 62 g/ha [3]?
Answer: 50%

Question: And the pest or weed control at 125 g/ha [3]?
Answer: 55%

Question: And the plant injury at 16 g/ha [4]?
Answer: 5%

Question: And the plant injury at 31 g/ha [4]?
Answer: 15%

Question: What about the plant injury at 62 g/ha [4] of the same compound?
Answer: 25%

Question: And the plant injury at 125 g/ha [4]?
Answer: 35%

Question: And the plant injury at 16 g/ha [5]?
Answer: 10%

Question: What about the plant injury at 31 g/ha [5] of the same compound?
Answer: 20%

Question: And the plant injury at 62 g/ha [5]?
Answer: 30%

Question: What about the plant injury at 125 g/ha [5] of the same compound?
Answer: 45%

Question: And the pest or weed control at 16 g/ha [6]?
Answer: 70%

Question: What about the pest or weed control at 31 g/ha [6] of the same compound?
Answer: 95%

Question: What about the pest or weed control at 62 g/ha [6] of the same compound?
Answer: 95%

Question: What about the pest or weed control at 125 g/ha [6] of the same compound?
Answer: 100%

Question: What about the pest or weed control at 16 g/ha [7] of the same compound?
Answer: 5%

Question: What about the pest or weed control at 31 g/ha [7] of the same compound?
Answer: 5%

Question: What about the pest or weed control at 62 g/ha [7] of the same compound?
Answer: 10%

Question: And the pest or weed control at 125 g/ha [7]?
Answer: 15%

Question: What about the pest or weed control at 16 g/ha [8] of the same compound?
Answer: 65%

Question: And the pest or weed control at 31 g/ha [8]?
Answer: 65%

Question: And the pest or weed control at 62 g/ha [8]?
Answer: 90%

Question: And the pest or weed control at 125 g/ha [8]?
Answer: 95%

Question: And the plant injury at 16 g/ha [9]?
Answer: 35%

Question: And the plant injury at 31 g/ha [9]?
Answer: 50%

Question: And the plant injury at 62 g/ha [9]?
Answer: 100%

Question: And the plant injury at 125 g/ha [9]?
Answer: 100%

Question: And the pest or weed control at 16 g/ha [10]?
Answer: 10%

Question: What about the pest or weed control at 31 g/ha [10] of the same compound?
Answer: 15%

Question: What about the pest or weed control at 62 g/ha [10] of the same compound?
Answer: 20%

Question: What about the pest or weed control at 125 g/ha [10] of the same compound?
Answer: 35%
